Measurements from article PMC5218480 (PLoS ONE, 2017).

Tested on: MV-4-11 cells
Assay: Gene expression microarray analysis (Affymetrix PrimeView) and GSEA
Assay type: cell-based, human
Design: RFU PODN (11730768_x_at) / Fold change /veh PODN (11730768_x_at) / RFU LINC00158 (11744669_a_at) / Fold change /veh LINC00158 (11744669_a_at) / RFU DUSP10 (11751237_a_at) / Fold change /veh DUSP10 (11751237_a_at) / RFU ID3 (11757404_x_at) / Fold change /veh ID3 (11757404_x_at) / RFU PLEKHG5 (11737974_s_at) / Fold change /veh PLEKHG5 (11737974_s_at) / RFU LRRC4B (11730491_at) / Fold change /veh LRRC4B (11730491_at) / RFU GIMAP4 (11747438_a_at) / Fold change /veh GIMAP4 (11747438_a_at) / RFU KRT8 (11758183_x_at) / Fold change /veh KRT8 (11758183_x_at) / RFU CNN1 (11734310_a_at) / Fold change /veh CNN1 (11734310_a_at) / RFU VPS37D (11726825_at) / Fold change /veh VPS37D (11726825_at) / RFU C10orf10 (11716522_x_at) / Fold change /veh C10orf10 (11716522_x_at) / RFU KIR2DL2 /// KIR2DL4 /// KIR2DL5A /// KIR2DL5B /// KIR2DS1 /// KIR2DS2 /// KIR2DS3 /// KIR2DS4 /// KIR3DL3 /// KIR3DL3 /// KIR3DS1 (11738374_at) / Fold change /veh KIR2DL2 /// KIR2DL4 /// KIR2DL5A /// KIR2DL5B /// KIR2DS1 /// KIR2DS2 /// KIR2DS3 /// KIR2DS4 /// KIR3DL3 /// KIR3DL3 /// KIR3DS1 (11738374_at) / RFU C1QL1 (11718748_at) / Fold change /veh C1QL1 (11718748_at) / RFU TMPRSS4 (11747572_a_at) / Fold change /veh TMPRSS4 (11747572_a_at) / RFU HAMP (11756126_x_at) / Fold change /veh HAMP (11756126_x_at) / RFU RNFT2 (11725882_a_at) / Fold change /veh RNFT2 (11725882_a_at) / RFU NR4A2 (11747474_a_at) / Fold change /veh NR4A2 (11747474_a_at) / RFU ABCC12 (11746883_a_at) / Fold change /veh ABCC12 (11746883_a_at) / RFU TMEM136 (11760407_x_at) / Fold change /veh TMEM136 (11760407_x_at) / RFU CLDN22 /// WWC2 (11732394_at) / Fold change /veh CLDN22 /// WWC2 (11732394_at) / RFU HLA-DPB1 (11760878_x_at) / Fold change /veh HLA-DPB1 (11760878_x_at) / RFU SPINT1 (11716480_a_at) / Fold change /veh SPINT1 (11716480_a_at) / RFU GAP43 (11754022_s_at) / Fold change /veh GAP43 (11754022_s_at) / RFU A4GNT (11735810_at) / Fold change /veh A4GNT (11735810_at) / RFU PRB3 (11715151_x_at) / Fold change /veh PRB3 (11715151_x_at) / RFU TUBB4B (11761932_at) / Fold change /veh TUBB4B (11761932_at) / RFU CAPN14 (11732068_a_at) / Fold change /veh CAPN14 (11732068_a_at) / RFU TMCC2 (11721928_a_at) / Fold change /veh TMCC2 (11721928_a_at) / RFU IRGQ (11745062_a_at) / Fold change /veh IRGQ (11745062_a_at) / RFU FAM174B (11720279_a_at) / Fold change /veh FAM174B (11720279_a_at) / RFU TMPRSS4 (11748680_a_at) / Fold change /veh TMPRSS4 (11748680_a_at) / RFU FAM212B (11763350_a_at) / Fold change /veh FAM212B (11763350_a_at) / RFU PLEKHG5 (11743358_a_at) / Fold change /veh PLEKHG5 (11743358_a_at) / RFU ZSCAN30 (11745921_a_at) / Fold change /veh ZSCAN30 (11745921_a_at) / RFU CMKLR1 (11741424_a_at) / Fold change /veh CMKLR1 (11741424_a_at) / RFU LOC101060620 /// MAPK8IP1 (11723275_at) / Fold change /veh LOC101060620 /// MAPK8IP1 (11723275_at) / RFU SPTSSB (11747773_x_at) / Fold change /veh SPTSSB (11747773_x_at) / RFU PRSS12 (11739890_at) / Fold change /veh PRSS12 (11739890_at) / RFU BIN1 (11741810_x_at) / Fold change /veh BIN1 (11741810_x_at) / RFU WNT11 (11732464_a_at) / Fold change /veh WNT11 (11732464_a_at) / RFU C10orf10 (11716521_a_at) / Fold change /veh C10orf10 (11716521_a_at) / RFU C5orf56 (11738089_at) / Fold change /veh C5orf56 (11738089_at) / RFU CYB561 (11721691_x_at) / Fold change /veh CYB561 (11721691_x_at) / RFU ANKRD19P (11752326_a_at) / Fold change /veh ANKRD19P (11752326_a_at) / RFU OR2T12 /// OR2T33 /// OR2T8 (11738714_s_at) / Fold change /veh OR2T12 /// OR2T33 /// OR2T8 (11738714_s_at) / RFU VCAN (11748164_a_at) / Fold change /veh VCAN (11748164_a_at) / RFU JSRP1 (11732532_at) / Fold change /veh JSRP1 (11732532_at) / RFU KRTAP10-11 (11738290_x_at) / Fold change /veh KRTAP10-11 (11738290_x_at) / RFU MYO3A (11730013_a_at) / Fold change /veh MYO3A (11730013_a_at) / RFU EBF3 (11725865_a_at) / Fold change /veh EBF3 (11725865_a_at) / RFU CAMK2N1 (11719241_x_at) / Fold change /veh CAMK2N1 (11719241_x_at) / RFU C5orf56 (11738088_a_at) / Fold change /veh C5orf56 (11738088_a_at) / RFU OLFML3 (11715873_a_at) / Fold change /veh OLFML3 (11715873_a_at) / RFU LOC100653217 /// NTM (11731650_a_at) / Fold change /veh LOC100653217 /// NTM (11731650_a_at) / RFU MAPK11 (11762145_a_at) / Fold change /veh MAPK11 (11762145_a_at) / RFU FIZ1 (11724087_x_at) / Fold change /veh FIZ1 (11724087_x_at) / RFU OASL (11726364_x_at) / Fold change /veh OASL (11726364_x_at) / RFU SOX15 (11748057_x_at) / Fold change /veh SOX15 (11748057_x_at) / RFU CD79A (11719716_a_at) / Fold change /veh CD79A (11719716_a_at) / RFU HIST1H1D (11736915_at) / Fold change /veh HIST1H1D (11736915_at) / RFU CASKIN2 (11723855_a_at) / Fold change /veh CASKIN2 (11723855_a_at) / RFU LOC730098 (11760151_x_at) / Fold change /veh LOC730098 (11760151_x_at) / RFU OR4N2 (11742367_at) / Fold change /veh OR4N2 (11742367_at) / RFU PRRT2 (11749266_a_at) / Fold change /veh PRRT2 (11749266_a_at) / RFU SNX32 (11753110_a_at) / Fold change /veh SNX32 (11753110_a_at) / RFU CDHR5 (11726645_a_at) / Fold change /veh CDHR5 (11726645_a_at) / RFU RCAN1 (11760418_a_at) / Fold change /veh RCAN1 (11760418_a_at) / RFU FAM167A (11723789_a_at) / Fold change /veh FAM167A (11723789_a_at) / RFU FAM26E (11764081_at) / Fold change /veh FAM26E (11764081_at) / RFU ISYNA1 (11749810_s_at) / Fold change /veh ISYNA1 (11749810_s_at) / RFU ACY1 (11761880_at) / Fold change /veh ACY1 (11761880_at) / RFU 11764098_at / Fold change /veh 11764098_at / RFU SAMD14 (11745864_x_at) / Fold change /veh SAMD14 (11745864_x_at) / RFU NPB (11741838_a_at) / Fold change /veh NPB (11741838_a_at) / RFU TMPRSS6 (11731388_a_at) / Fold change /veh TMPRSS6 (11731388_a_at) / RFU KRTAP10-2 (11738614_at) / Fold change /veh KRTAP10-2 (11738614_at) / RFU ARHGAP8 /// PRR5-ARHGAP8 (11727945_x_at) / Fold change /veh ARHGAP8 /// PRR5-ARHGAP8 (11727945_x_at) / RFU KRTAP5-7 /// NADSYN1 (11734609_at) / Fold change /veh KRTAP5-7 /// NADSYN1 (11734609_at) / RFU RASL12 (11751679_a_at) / Fold change /veh RASL12 (11751679_a_at) / RFU CDKN2B (11736163_a_at) / Fold change /veh CDKN2B (11736163_a_at) / RFU PRF1 (11729649_at) / Fold change /veh PRF1 (11729649_at) / RFU, ZNF638 /// ZNF638-IT1 / Fold change vs veh, ZNF638 /// ZNF638-IT1 / RFU, PANK3 / Fold change vs veh, PANK3 / RFU, SH3YL1 / Fold change vs veh, SH3YL1 / RFU, ZEB2 / Fold change vs veh, ZEB2 / RFU, NRIP1 / Fold change vs veh, NRIP1 / RFU, PTTG1IP / Fold change vs veh, PTTG1IP / RFU, CAPN2 / Fold change vs veh, CAPN2 / RFU, MED14 / Fold change vs veh, MED14 / RFU, SNORA58 / Fold change vs veh, SNORA58 / RFU, C1orf63 / Fold change vs veh, C1orf63 / RFU, LRRFIP1 / Fold change vs veh, LRRFIP1 / RFU, NDUFAF7 / Fold change vs veh, NDUFAF7 / RFU, SLC12A2 / Fold change vs veh, SLC12A2 / RFU, IBTK / Fold change vs veh, IBTK / RFU, ESF1 / Fold change vs veh, ESF1 / Fold change vs veh, TMEM50B / RFU, TAOK1 / Fold change vs veh, TAOK1 / RFU, ACBD3 / Fold change vs veh, ACBD3 / RFU, TMA16 / Fold change vs veh, TMA16 / RFU, RWDD3 / Fold change vs veh, RWDD3 / RFU, BCAT1 / Fold change vs veh, BCAT1 / RFU, EDEM3 / Fold change vs veh, EDEM3 / RFU, TMEM33 / Fold change vs veh, TMEM33 / RFU, WDR75 / Fold change vs veh, WDR75 / RFU, AHCTF1 / Fold change vs veh, AHCTF1 / RFU, TFRC / Fold change vs veh, TFRC / RFU, ZDHHC17 / Fold change vs veh, ZDHHC17 / RFU, NOM1 / Fold change vs veh, NOM1 / RFU, ARL8B / Fold change vs veh, ARL8B / RFU, ZBTB11 / Fold change vs veh, ZBTB11 / RFU, TAMM41 / Fold change vs veh, TAMM41 / RFU, KIAA1704 /// LOC100996395 / Fold change vs veh, KIAA1704 /// LOC100996395 / RFU, ING1 / Fold change vs veh, ING1 / RFU, TRMT61B / Fold change vs veh, TRMT61B / RFU, FUBP3 / Fold change vs veh, FUBP3 / RFU, TP53 / Fold change vs veh, TP53 / RFU, TNKS2 / Fold change vs veh, TNKS2 / RFU, ZFP14 / Fold change vs veh, ZFP14 / RFU, ACTR2 / Fold change vs veh, ACTR2 / RFU, PPP3R1 / Fold change vs veh, PPP3R1 / RFU, PIK3R1 / Fold change vs veh, PIK3R1 / RFU, HNRNPA1 / Fold change vs veh, HNRNPA1 / RFU, RNF170 / Fold change vs veh, RNF170 / RFU, ZNF28 / Fold change vs veh, ZNF28 / RFU, RNGTT / Fold change vs veh, RNGTT / RFU, OGT / Fold change vs veh, OGT / RFU, BRD1 / Fold change vs veh, BRD1 / RFU, MARS / Fold change vs veh, MARS / RFU, ZNF655 / Fold change vs veh, ZNF655 / RFU, FAHD1 / Fold change vs veh, FAHD1 / RFU, BDP1 / Fold change vs veh, BDP1 / RFU, LRRCC1 / Fold change vs veh, LRRCC1 / RFU, ARID1A / Fold change vs veh, ARID1A / RFU, ZNF146 / Fold change vs veh, ZNF146 / RFU, ZNF330 / Fold change vs veh, ZNF330 / RFU, GPN3 / Fold change vs veh, GPN3 / RFU, C9orf123 / Fold change vs veh, C9orf123 / RFU, N4BP2L2 / Fold change vs veh, N4BP2L2 / RFU, ARFIP1 / Fold change vs veh, ARFIP1 / RFU, FAM179B / Fold change vs veh, FAM179B / RFU, BCL10 / Fold change vs veh, BCL10 / RFU, UHRF1BP1L / Fold change vs veh, UHRF1BP1L / RFU, BET1 / Fold change vs veh, BET1 / RFU, CNOT2 / Fold change vs veh, CNOT2 / RFU, ZNF268 / Fold change vs veh, ZNF268 / Fold change vs veh, ZNF507 / RFU, DGCR2 / Fold change vs veh, DGCR2 / RFU, WDSUB1 / Fold change vs veh, WDSUB1 / Fold change vs veh, HSP90B1 /// MIR3652 / RFU, ADSS / Fold change vs veh, ADSS / RFU, GK / Fold change vs veh, GK / RFU, ZNF148 / Fold change vs veh, ZNF148 / RFU, TAF9 / Fold change vs veh, TAF9 / RFU, SLC1A5 / Fold change vs veh, SLC1A5 / RFU, SLMO2 / Fold change vs veh, SLMO2 / RFU, ABCC4 / Fold change vs veh, ABCC4 / RFU, LOC101060439 /// RAP1B / Fold change vs veh, LOC101060439 /// RAP1B / RFU, RFX7 / Fold change vs veh, RFX7 / RFU, GTPBP10 / Fold change vs veh, GTPBP10 / RFU, CNEP1R1 / Fold change vs veh, CNEP1R1 / RFU, BIVM-ERCC5 /// ERCC5 / Fold change vs veh, BIVM-ERCC5 /// ERCC5 / RFU, ILF3 / Fold change vs veh, ILF3 / RFU 11762660_at / Fold change /veh 11762660_at / RFU VCAN (11757783_s_at) / Fold change /veh VCAN (11757783_s_at) / RFU DDX43 (11728927_at) / Fold change /veh DDX43 (11728927_at) / RFU KRT8 (11758188_x_at) / Fold change /veh KRT8 (11758188_x_at) / RFU NKD1 (11759106_at) / Fold change /veh NKD1 (11759106_at) / RFU SRD5A1 (11742802_a_at) / Fold change /veh SRD5A1 (11742802_a_at) / RFU TPSAB1 /// TPSB2 (11721975_s_at) / Fold change /veh TPSAB1 /// TPSB2 (11721975_s_at) / RFU GSTM3 (11746129_a_at) / Fold change /veh GSTM3 (11746129_a_at) / RFU IL23R (11737362_x_at) / Fold change /veh IL23R (11737362_x_at) / RFU TMEM51 (11727254_a_at) / Fold change /veh TMEM51 (11727254_a_at) / RFU PIWIL2 (11732686_x_at) / Fold change /veh PIWIL2 (11732686_x_at) / RFU ORM1 (11744905_x_at) / Fold change /veh ORM1 (11744905_x_at) / RFU CCDC152 (11743942_at) / Fold change /veh CCDC152 (11743942_at) / RFU ECM1 (11717891_a_at) / Fold change /veh ECM1 (11717891_a_at) / RFU IL23R (11748794_a_at) / Fold change /veh IL23R (11748794_a_at) / RFU TNFAIP8L3 (11732012_x_at) / Fold change /veh TNFAIP8L3 (11732012_x_at) / RFU MBOAT4 (11741988_at) / Fold change /veh MBOAT4 (11741988_at) / RFU 11764193_at / Fold change /veh 11764193_at / RFU TMEM53 (11763286_at) / Fold change /veh TMEM53 (11763286_at) / RFU MAGEB2 (11727129_at) / Fold change /veh MAGEB2 (11727129_at) / RFU TMEM200A (11744735_a_at) / Fold change /veh TMEM200A (11744735_a_at) / RFU CCDC152 (11751479_a_at) / Fold change /veh CCDC152 (11751479_a_at) / RFU FAM211A (11726209_a_at) / Fold change /veh FAM211A (11726209_a_at) / RFU RGS16 (11746705_a_at) / Fold change /veh RGS16 (11746705_a_at) / RFU VCAN (11755009_s_at) / Fold change /veh VCAN (11755009_s_at) / RFU RHOB (11743442_s_at) / Fold change /veh RHOB (11743442_s_at) / RFU RGS16 (11720943_a_at) / Fold change /veh RGS16 (11720943_a_at) / RFU RGS16 (11720944_at) / Fold change /veh RGS16 (11720944_at) / RFU, VPS4B / Fold change vs veh, VPS4B / RFU, CREB1 / Fold change vs veh, CREB1 / RFU, DNAJC13 / Fold change vs veh, DNAJC13 / RFU, GNAQ / Fold change vs veh, GNAQ / RFU, CDK5R1 / Fold change vs veh, CDK5R1 / RFU, ZRANB3 / Fold change vs veh, ZRANB3 / RFU, CUL4A / Fold change vs veh, CUL4A / RFU, CCNY / Fold change vs veh, CCNY / RFU, UFL1 / Fold change vs veh, UFL1 / RFU, COG3 / Fold change vs veh, COG3 / RFU, DIAPH2 / Fold change vs veh, DIAPH2 / RFU, SKA2 / Fold change vs veh, SKA2 / RFU, AFF3 / Fold change vs veh, AFF3 / RFU, LMF1 / Fold change vs veh, LMF1 / RFU, IPO11 / Fold change vs veh, IPO11 / RFU, DFFB / Fold change vs veh, DFFB / RFU, FOXP1 / Fold change vs veh, FOXP1 / RFU, CARD8 / Fold change vs veh, CARD8 / RFU, STRN3 / Fold change vs veh, STRN3 / RFU, ADK / Fold change vs veh, ADK / RFU, RASSF2 / Fold change vs veh, RASSF2 / RFU, WIPF1 / Fold change vs veh, WIPF1 / RFU, LARP1B / Fold change vs veh, LARP1B / RFU, RASA1 / Fold change vs veh, RASA1 / RFU, RB1 / Fold change vs veh, RB1 / RFU, PPFIA1 / Fold change vs veh, PPFIA1 / RFU, MAT2A / Fold change vs veh, MAT2A / RFU, CCT5 / Fold change vs veh, CCT5 / RFU, WDR92 / Fold change vs veh, WDR92 / RFU, CUX1 / Fold change vs veh, CUX1 / RFU, TTC7A / Fold change vs veh, TTC7A / RFU, TMEM135 / Fold change vs veh, TMEM135 / RFU, DEPTOR / Fold change vs veh, DEPTOR / RFU, CPM / Fold change vs veh, CPM / RFU, DNAJB6 / Fold change vs veh, DNAJB6 / RFU, CACNA2D3 / Fold change vs veh, CACNA2D3 / RFU, DTX4 / Fold change vs veh, DTX4 / RFU, TFCP2 / Fold change vs veh, TFCP2 / RFU, GMCL1 /// GMCL1P1 / Fold change vs veh, GMCL1 /// GMCL1P1 / RFU, AEBP2 / Fold change vs veh, AEBP2 / RFU, SNHG1 /// SNORD22 /// SNORD25 /// SNORD26 /// SNORD27 /// SNORD28 /// SNORD29 /// SNORD31 / Fold change vs veh, SNHG1 /// SNORD22 /// SNORD25 /// SNORD26 /// SNORD27 /// SNORD28 /// SNORD29 /// SNORD31 / Fold change (Aza/veh), C12orf56 (ProbeSet 11735607_a_at) / Fold change (ACY-1035/veh), C12orf56 (ProbeSet 11735607_a_at) / Fold change (Aza/veh), FGFR1OP (ProbeSet 11751329_s_at) / Fold change (ACY-1035/veh), FGFR1OP (ProbeSet 11751329_s_at) / Fold change (Aza/veh), VPS36 (ProbeSet 11739960_a_at) / Fold change (ACY-1035/veh), VPS36 (ProbeSet 11739960_a_at) / RFU SYPL1 (11715823_x_at) / Fold change /veh SYPL1 (11715823_x_at) / RFU IGFBP7 (11715501_s_at) / Fold change /veh IGFBP7 (11715501_s_at) / RFU REEP3 (11722064_at) / Fold change /veh REEP3 (11722064_at) / RFU IGLL1 (11728026_x_at) / Fold change /veh IGLL1 (11728026_x_at): dose or concentration left out as unconfirmed
Conditions: ProbeSet 11724877_a_at; LIST D

`Nc1ccc(-c2cccs2)cc1NC(=O)c1ccc2c(c1)cc(C1CC1)n2CCN1CCOCC1` [ACY-1035] was tested, and the “RFU, AEBP2” value was 30.16 RFU.
